Reference: PMC5053523, “In Vitro Antibacterial Activity of Rhodanine Derivatives against Pathogenic Clinical Isolates” (PLoS ONE, 2016)
Like-named read-outs stand apart in the source and are kept apart here.

Columns and labels:
Mycobacterium smegmatis = assay: Broth microdilution MIC/MBC, Mycobacterium smegmatis; format: cell-based; details: Mycolicibacterium smegmatis, ATCC14468, M. Smegmatis ATCC 14468; for MBC: read-out: MBC; for MIC: read-out: MIC
Clostridium difficile = assay: MIC against Clostridium difficile, anaerobic broth dilution; format: cell-based; details: Clostridioides difficile
How it was run: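 Clinical C. difficile isolates grown anaerobically 48 h at 37 °C, suspended to 0.5 McFarland and diluted 1:300 in pre-reduced supplemented Brain Heart Infusion broth. Compounds serially diluted; plates incubated anaerobically at 37 °C for 48 h. MIC = lowest concentration with no visible growth.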

[1] = tested on: vancomycin resistant enterococci (VRE) E. faecium; assay: Broth microdilution MIC/MBC, VRE E. faecium; format: cell-based; details: for MIC: read-out: MIC
B. cereus = assay: Broth microdilution MIC/MBC, B. cereus; format: cell-based; details: Bacillus cereus; for MBC: read-out: MBC; for MIC: read-out: MIC
Description: The broth microdilution technique was used, followed by subculturing on agar plates that were rhodanine—free.

[2] = tested on: Vancomycin Resistant Staphylococcus aureus (VRSA); assay: Broth microdilution MIC/MBC, VRSA; format: cell-based; details: for MIC50 / MIC90: 15 VRSA strains; for MIC50: read-out: MIC 50; for MIC90: read-out: MIC 90; for MBC / MIC: VRSA
P. aeruginosa = assay: Broth microdilution MIC, P. aeruginosa; format: cell-based; details: Pseudomonas aeruginosa
Salmonella Typhimurium = assay: MIC with/without PMBN, Salmonella Typhimurium; format: cell-based
How it was run: (§1)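 Read-out is the MIC, determined with sub-inhibitory colistin or polymixin B nonapeptide co-applied to permeabilize the outer membrane of Gram-negative bacteria.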

Escherichia coli O157:H7 = assay: MIC with/without PMBN, Escherichia coli O157:H7; format: cell-based
How it was run: as §1

Bacillus Strains = assay: Broth microdilution MIC50/MIC90 and MIC range, Bacillus strains panel; format: cell-based, Bacillus spp.; details: 10 Bacillus strains
Description: The broth microdilution technique was used, followed by subculturing on agar plates that were rhodanine—free. […] The MICs reported represent the lowest concentration of each compound necessary to inhibit bacterial growth and the MBCs represent the lowest concentration required to reduce the initial bacterial inoculum by ≥ 99.9%.

Escherichia coli Δ acrAB = assay: MIC against E. coli 1411 and AcrAB efflux pump deficient E. coli SM1411Δ acrAB; format: cell-based
How it was run: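 Gram-negative MICs were determined for rhodanines alongside control antibiotics, each combined with sub-inhibitory colistin or PMBN. Further testing used the efflux-deficient E. coli SM1411ΔacrAB, missing the AcrAB multidrug pump.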

[3] = tested on: vancomycin resistant enterococci (VRE) E. faecalis; assay: Broth microdilution MIC/MBC, VRE E. faecalis; format: cell-based; details: for MIC: read-out: MIC
[4] = C. difficile Isolate-1 NR-13427
[5] = C. difficile Toxigenic Strain P8 NR-32888
[6] = E. faecium HM 968 Strain ERV102
[7] = E. faecium NR31914 Strain E0120
[8] = E. faecium Patient #1–1 NR-31903
[9] = NRS201, B. cereus NRS 201 NR-2488
[10] = Salmonella Typhimurium ATCC 700720, PMBN (+) 4 μg/mL, read-out: MIC
[11] = Salmonella enterica, ATCC 700720 / TYPHIMURIUM
[12] = Escherichia coli O157:H7 ATCC 35150, PMBN (+) 4 μg/mL, read-out: MIC
[13] = Escherichia coli O157:H7 ATCC 700728, PMBN (+) 4 μg/mL, read-out: MIC
[14] = E.coli 1411 SM (Δ acrAB, AcrAB efflux pump deficient)
[15] = E. faecalis NR31972 Strain SF 28073

O=C(O)[C@H](Cc1ccccc1)N1C(=O)/C(=C/c2cccc(-c3ccc(Cl)c(Cl)c3)c2)SC1=S [Rh 2]
4 µM: MIC (Mycobacterium smegmatis) | MIC (Clostridium difficile; C. difficile HM-88) | MIC ([1]; E. faecium E417 HM-965) | MIC [1, 6] | MIC [1, 7] | MIC [1, 8] | MBC (B. cereus; B. cereus BAG1O-2 NR-28582) | MIC (B. cereus; B. cereus BAG1O-2 NR-28582) | MBC (B. cereus; B. cereus BAG1X2-1 NR-28578) | MBC (B. cereus; B. cereus G9241 NR-9564) | MIC (B. cereus; B. cereus G9241 NR-9564) | MBC (B. cereus; B. cereus VD115 NR-22148) | MIC (B. cereus; B. cereus VD115 NR-22148) | MBC (B. cereus; [9]) | MIC (B. cereus; [9]) | MIC50 [2] | MIC90 [2] | MIC ([2]; VRSA 1, read-out: MIC) | MBC ([2]; VRSA 2, read-out: MBC) | MIC ([2]; VRSA 2, read-out: MIC) | MIC ([2]; VRSA 3a, read-out: MIC) | MBC ([2]; VRSA 3b, read-out: MBC) | MIC ([2]; VRSA 3b, read-out: MIC) | MBC ([2]; VRSA 4, read-out: MBC) | MIC ([2]; VRSA 4, read-out: MIC) | MIC ([2]; VRSA 5, read-out: MIC) | MIC ([2]; VRSA 6, read-out: MIC) | MIC ([2]; VRSA 7, read-out: MIC) | MIC ([2]; VRSA 8, read-out: MIC) | MIC ([2]; VRSA 10, read-out: MIC) | MBC ([2]; VRSA 11a, read-out: MBC) | MIC ([2]; VRSA 11a, read-out: MIC) | MIC ([2]; VRSA 11b, read-out: MIC) | MIC ([2]; VRSA 12, read-out: MIC) | MIC ([2]; VRSA 13, read-out: MIC) | MIC90 (Bacillus Strains) | MBC ([3]; E. faecalis ERV103 HM-934) | MIC ([3]; E. faecalis ERV103 HM-934) | MIC [3, 15] | MBC ([3]; E. faecalis R712 HM-335) | MIC ([3]; E. faecalis R712 HM-335) | MBC ([3]; E. faecalis S613 HM-334) | MIC ([3]; E. faecalis S613 HM-334) | MBC ([3]; E. faecalis TX0104 HM-201) | MIC ([3]; E. faecalis TX0104 HM-201)
16 µM: MBC ([2]; VRSA 3a, read-out: MBC) | MBC ([2]; VRSA 6, read-out: MBC)
>128 µM: MIC (Salmonella Typhimurium; [10])
32 µM: MBC [1, 7] | MBC ([2]; VRSA 7, read-out: MBC) | MBC ([2]; VRSA 9, read-out: MBC) | MBC ([2]; VRSA 10, read-out: MBC) | MBC ([2]; VRSA 12, read-out: MBC) | MBC [3, 15]
> 64 µM: MIC (Escherichia coli Δ acrAB; E.coli 1411) | MIC (Escherichia coli Δ acrAB; [14])
> 128 µM: MIC (P. aeruginosa; ATCC9721) | MIC (P. aeruginosa; ATCC15442) | MIC (Salmonella Typhimurium; [11]) | MIC (Escherichia coli O157:H7; Escherichia coli, ATCC700728)
>64 µM: MIC (Escherichia coli O157:H7; [13])
2 µM: MIC (Clostridium difficile; C. difficile HM-745) | MIC (Clostridium difficile; C. difficile HM-746) | MIC (Clostridium difficile; [4]) | MBC (B. cereus; B. cereus BAG1X1-1 NR-28575) | MIC (B. cereus; B. cereus BAG1X1-1 NR-28575) | MIC (B. cereus; B. cereus BAG1X2-1 NR-28578) | MBC (B. cereus; B. cereus VD014 NR-22141) | MIC (B. cereus; B. cereus VD014 NR-22141) | MBC (B. cereus; B. cereus VD148 NR-22150) | MIC (B. cereus; B. cereus VD148 NR-22150) | MIC50 (Bacillus Strains)
> 256 µM: MIC (Escherichia coli O157:H7; Escherichia coli, ATCC35150)
64 µM: MBC ([1]; E. faecium E417 HM-965) | MBC ([1]; E. faecium E1071 NR-28978) | MBC [1, 6] | MBC [1, 8] | MBC ([2]; VRSA 5, read-out: MBC) | MBC ([2]; VRSA 11b, read-out: MBC) | MBC ([2]; VRSA 13, read-out: MBC)
8 µM: MBC (Mycobacterium smegmatis) | MIC (Clostridium difficile; [5]) | MIC ([1]; E. faecium E1071 NR-28978) | MBC ([2]; VRSA 1, read-out: MBC) | MBC ([2]; VRSA 8, read-out: MBC) | MIC ([2]; VRSA 9, read-out: MIC) | MIC (Escherichia coli O157:H7; [12])

O=C(O)[C@@H](Cc1ccccc1)N1C(=O)/C(=C/c2cccc(Oc3ccc(F)cc3)c2)SC1=S [Rh 4]
8 µM: MBC (B. cereus; B. cereus BAG1O-2 NR-28582) | MIC (B. cereus; B. cereus BAG1O-2 NR-28582) | MBC (B. cereus; B. cereus BAG1X1-1 NR-28575) | MIC (B. cereus; B. cereus BAG1X1-1 NR-28575) | MBC (B. cereus; B. cereus BAG1X2-1 NR-28578) | MIC (B. cereus; B. cereus BAG1X2-1 NR-28578) | MBC (B. cereus; B. cereus VD014 NR-22141) | MIC (B. cereus; B. cereus VD014 NR-22141) | MBC (B. cereus; B. cereus VD115 NR-22148) | MIC (B. cereus; B. cereus VD115 NR-22148) | MBC (B. cereus; B. cereus VD148 NR-22150) | MIC (B. cereus; B. cereus VD148 NR-22150) | MIC (B. cereus; [9]) | MIC (Escherichia coli O157:H7; [12]) | MIC50 (Bacillus Strains)
> 64 µM: MBC (Mycobacterium smegmatis) | MBC ([1]; E. faecium E417 HM-965) | MBC (B. cereus; [9]) | MIC (Escherichia coli Δ acrAB; E.coli 1411) | MIC (Escherichia coli Δ acrAB; [14])
2 µM: MIC (Clostridium difficile; C. difficile HM-745) | MIC (Clostridium difficile; C. difficile HM-746) | MIC (Clostridium difficile; [4])
32 µM: MIC (Mycobacterium smegmatis) | MIC ([1]; E. faecium E1071 NR-28978) | MIC [1, 6] | MIC [1, 7] | MBC ([2]; VRSA 3a, read-out: MBC) | MBC ([2]; VRSA 5, read-out: MBC) | MBC ([2]; VRSA 6, read-out: MBC) | MBC ([2]; VRSA 7, read-out: MBC) | MBC ([2]; VRSA 8, read-out: MBC) | MBC ([2]; VRSA 9, read-out: MBC) | MIC ([2]; VRSA 9, read-out: MIC) | MBC ([2]; VRSA 10, read-out: MBC) | MBC ([3]; E. faecalis ERV103 HM-934) | MIC ([3]; E. faecalis ERV103 HM-934) | MBC [3, 15] | MIC [3, 15] | MBC ([3]; E. faecalis R712 HM-335) | MBC ([3]; E. faecalis S613 HM-334) | MIC ([3]; E. faecalis S613 HM-334) | MBC ([3]; E. faecalis TX0104 HM-201) | MIC ([3]; E. faecalis TX0104 HM-201)
64 µM: MBC ([1]; E. faecium E1071 NR-28978) | MBC [1, 6] | MBC [1, 7] | MBC [1, 8] | MBC ([2]; VRSA 1, read-out: MBC) | MBC ([2]; VRSA 4, read-out: MBC) | MBC ([2]; VRSA 11a, read-out: MBC) | MBC ([2]; VRSA 11b, read-out: MBC) | MBC ([2]; VRSA 12, read-out: MBC) | MBC ([2]; VRSA 13, read-out: MBC)
>128 µM: MIC (Salmonella Typhimurium; [10])
4 µM: MIC (Clostridium difficile; C. difficile HM-88) | MIC (Clostridium difficile; [5])
>64 µM: MIC (Escherichia coli O157:H7; [13])
16 µM: MIC ([1]; E. faecium E417 HM-965) | MIC [1, 8] | MBC (B. cereus; B. cereus G9241 NR-9564) | MIC (B. cereus; B. cereus G9241 NR-9564) | MIC50 [2] | MIC90 [2] | MIC ([2]; VRSA 1, read-out: MIC) | MBC ([2]; VRSA 2, read-out: MBC) | MIC ([2]; VRSA 2, read-out: MIC) | MIC ([2]; VRSA 3a, read-out: MIC) | MBC ([2]; VRSA 3b, read-out: MBC) | MIC ([2]; VRSA 3b, read-out: MIC) | MIC ([2]; VRSA 4, read-out: MIC) | MIC ([2]; VRSA 5, read-out: MIC) | MIC ([2]; VRSA 6, read-out: MIC) | MIC ([2]; VRSA 7, read-out: MIC) | MIC ([2]; VRSA 8, read-out: MIC) | MIC ([2]; VRSA 10, read-out: MIC) | MIC ([2]; VRSA 11a, read-out: MIC) | MIC ([2]; VRSA 11b, read-out: MIC) | MIC ([2]; VRSA 12, read-out: MIC) | MIC ([2]; VRSA 13, read-out: MIC) | MIC90 (Bacillus Strains) | MIC ([3]; E. faecalis R712 HM-335)
> 128 µM: MIC (P. aeruginosa; ATCC9721) | MIC (P. aeruginosa; ATCC15442) | MIC (Salmonella Typhimurium; [11]) | MIC (Escherichia coli O157:H7; Escherichia coli, ATCC700728)
> 256 µM: MIC (Escherichia coli O157:H7; Escherichia coli, ATCC35150)
